A short description of series [1]: Ratio of drug level in brain to plasma in Sprague-Dawley rat at 1 mg/kg, sc by LC-MS/MS analysis. The series is classed as ADME, organism-based. The arrangement: dose 1 mg/kg, route subcutaneous. The following applies: read-out: BPR.
The nature of series [2]: AUC(0 to infinity) in Sprague-Dawley rat brain at 1 mg/kg, sc by LC-MS/MS analysis. The arrangement: time infinity, dose 1 mg/kg, route subcutaneous. In kind it is ADME, organism-based.
A short description of series [3]: Ratio of drug level in brain to plasma in cynomolgus monkey at 0.1 mg/kg, sc by LC-MS/MS analysis. In kind it is ADME, organism-based, Macaca fascicularis. Set-up: dose 0.1 mg/kg, route subcutaneous. The following applies: brain and plasma, read-out: BPR.
Series [4] can be described thus: Unbound fraction in cynomolgus monkey plasma at 0.1 mg/kg, sc by LC-MS/MS analysis. Set-up: dose 0.1 mg/kg, route subcutaneous. The series is classed as ADME, organism-based, Macaca fascicularis.
The nature of series [5]: AUC(0 to infinity) in Sprague-Dawley rat plasma at 1 mg/kg, sc by LC-MS/MS analysis. The series is classed as ADME, organism-based. The arrangement: time infinity, dose 1 mg/kg, route subcutaneous.
Series [6] in a line: AUC(0 to 2 hrs) in Sprague-Dawley rat cerebrospinal fluid at 1 mg/kg, sc by LC-MS/MS analysis. In kind it is ADME, organism-based. Set-up: time < 2 hr, dose 1 mg/kg, route subcutaneous.
The nature of series [7]: Ratio of unbound brain concentration to drug level in cerebrospinal fluid in cynomolgus monkey at 0.1 mg/kg, sc by LC-MS/MS analysis. The following applies: in vivo. Set-up: dose 0.1 mg/kg, route subcutaneous. The series is classed as ADME, organism-based, Macaca fascicularis.
Series [8] is described as follows: AUC(0 to 2 hrs) in Sprague-Dawley rat brain at 1 mg/kg, sc by LC-MS/MS analysis. The series is classed as ADME, organism-based. The arrangement: time < 2 hr, dose 1 mg/kg, route subcutaneous.
Series [9] can be described thus: Ratio of unbound drug level in brain to plasma in cynomolgus monkey at 0.1 mg/kg, sc by LC-MS/MS analysis. The arrangement: dose 0.1 mg/kg, route subcutaneous. The series is classed as ADME, organism-based, Macaca fascicularis. The following applies: brain and plasma.
The nature of series [10]: Ratio of unbound drug level in brain to plasma in Beagle dog at 0.5 mg/kg, po by LC-MS/MS analysis. The series is classed as ADME, organism-based, Canis lupus familiaris. The arrangement: dose 0.5 mg/kg, route oral. The note with it: brain and plasma.
Series [11] in a line: AUC(0 to 2 hrs) in Sprague-Dawley rat plasma at 1 mg/kg, sc by LC-MS/MS analysis. In kind it is ADME, organism-based. Set-up: time < 2 hr, dose 1 mg/kg, route subcutaneous.
In series [12] the test system is Nucleic Acid. Briefly: Ratio of drug level in cerebrospinal fluid to unbound plasma concentration in Beagle dog at 0.5 mg/kg, po by LC-MS/MS analysis. The series is classed as ADME, organism-based, Canis lupus familiaris. The note with it: in vivo. The arrangement: dose 0.5 mg/kg, route oral.
Series [13] in a line: Ratio of unbound brain concentration to drug level in cerebrospinal fluid in Sprague-Dawley rat at 1 mg/kg, sc by LC-MS/MS analysis. The series is classed as ADME, organism-based. Set-up: dose 1 mg/kg, route subcutaneous. The note with it: in vivo.
Series [14] relates to Nucleic Acid. Briefly: Ratio of drug level in cerebrospinal fluid to unbound plasma concentration in Sprague-Dawley rat at 1 mg/kg, sc by LC-MS/MS analysis. The series is classed as ADME, organism-based. The note with it: in vivo. Set-up: dose 1 mg/kg, route subcutaneous.
The nature of series [15]: Ratio of unbound drug level in brain to plasma in Sprague-Dawley rat at 1 mg/kg, sc by LC-MS/MS analysis. In kind it is ADME, organism-based. The arrangement: dose 1 mg/kg, route subcutaneous.
The nature of series [16]: Ratio of unbound brain concentration to drug level in cerebrospinal fluid in Beagle dog at 0.5 mg/kg, po by LC-MS/MS analysis. In kind it is ADME, organism-based, Canis lupus familiaris. The arrangement: dose 0.5 mg/kg, route oral. The note with it: in vivo.
Series [17] can be described thus: Unbound fraction in cynomolgus monkey brain at 0.1 mg/kg, sc by LC-MS/MS analysis. In kind it is ADME, organism-based, Macaca fascicularis. The arrangement: dose 0.1 mg/kg, route subcutaneous.
The nature of series [18]: AUC(0 to infinity) in Sprague-Dawley rat cerebrospinal fluid at 1 mg/kg, sc by LC-MS/MS analysis. In kind it is ADME, organism-based. Set-up: time infinity, dose 1 mg/kg, route subcutaneous.
A short description of series [19]: Unbound fraction in Beagle dog brain at 0.5 mg/kg, po by LC-MS/MS analysis. In kind it is ADME, organism-based, Canis lupus familiaris. The arrangement: dose 0.5 mg/kg, route oral.
In series [20] the test system is Nucleic Acid. In words: Ratio of drug level in cerebrospinal fluid to unbound plasma concentration in cynomolgus monkey at 0.1 mg/kg, sc by LC-MS/MS analysis. The note with it: in vivo. The arrangement: dose 0.1 mg/kg, route subcutaneous. The series is classed as ADME, organism-based, Macaca fascicularis.
Series [21] can be described thus: Unbound fraction in Beagle dog plasma at 0.5 mg/kg, po by LC-MS/MS analysis. In kind it is ADME, organism-based, Canis lupus familiaris. Set-up: dose 0.5 mg/kg, route oral.
Series [22] is described as follows: AUC(0 to 7 hrs) in Sprague-Dawley rat brain at 3 mg/kg, sc by LC-MS/MS analysis. Set-up: time < 7 hr, dose 3 mg/kg, route subcutaneous. In kind it is ADME, organism-based.
Series [23] can be described thus: AUC(0 to infinity) in Sprague-Dawley rat plasma at 3 mg/kg, sc by LC-MS/MS analysis. Set-up: time infinity, dose 3 mg/kg, route subcutaneous. In kind it is ADME, organism-based.
The nature of series [24]: AUC(0 to 7 hrs) in Sprague-Dawley rat plasma at 3 mg/kg, sc by LC-MS/MS analysis. The series is classed as ADME, organism-based. Set-up: time < 7 hr, dose 3 mg/kg, route subcutaneous.
Series [25] is described as follows: Ratio of unbound brain concentration to drug level in cerebrospinal fluid in Sprague-Dawley rat at 3 mg/kg, sc by LC-MS/MS analysis. The series is classed as ADME, organism-based. Set-up: dose 3 mg/kg, route subcutaneous. The note with it: in vivo.
Series [26] is described as follows: Ratio of drug level in brain to plasma in Sprague-Dawley rat at 3 mg/kg, sc by LC-MS/MS analysis. In kind it is ADME, organism-based. Set-up: dose 3 mg/kg, route subcutaneous. The note with it: read-out: BPR.
Series [27] can be described thus: AUC(0 to 7 hrs) in Sprague-Dawley rat cerebrospinal fluid at 3 mg/kg, sc by LC-MS/MS analysis. The series is classed as ADME, organism-based. Set-up: time < 7 hr, dose 3 mg/kg, route subcutaneous.
Series [28] is described as follows: Ratio of unbound drug level in brain to plasma in Sprague-Dawley rat at 3 mg/kg, sc by LC-MS/MS analysis. The series is classed as ADME, organism-based. The arrangement: dose 3 mg/kg, route subcutaneous.
Series [29] has as its system Nucleic Acid. Briefly: Ratio of drug level in cerebrospinal fluid to unbound plasma concentration in Sprague-Dawley rat at 3 mg/kg, sc by LC-MS/MS analysis. In kind it is ADME, organism-based. The arrangement: dose 3 mg/kg, route subcutaneous. The following applies: in vivo.
Series [30] can be described thus: AUC(0 to infinity) in Sprague-Dawley rat brain at 3 mg/kg, sc by LC-MS/MS analysis. In kind it is ADME, organism-based. The arrangement: dose 3 mg/kg, route subcutaneous, time infinity.
Series [31] is described as follows: AUC(0 to infinity) in Sprague-Dawley rat cerebrospinal fluid at 3 mg/kg, sc by LC-MS/MS analysis. In kind it is ADME, organism-based. Set-up: dose 3 mg/kg, route subcutaneous, time infinity.

For orientation: AUC(0-inf) means total exposure, with the tail of the curve extrapolated. A word on the fraction unbound: it is free concentration divided by total concentration. The term AUC(0-t) denotes exposure summed from dosing to a finite time, without extrapolation to infinity.

Regarding `CC(C)S(=O)(=O)N[C@H]1CCOC[C@@H]1c1ccc(-c2ccc(C#N)s2)cc1`, the Kp came out at 1.07 in series [1] and 2.82 in series [3]. The AUC(0-inf) in series [2] stood at 150 ng·h/mL; in [5], 131 ng·h/mL; in [18], 5.4 ng·h/mL. Further, the fraction unbound in [4] was found to be 0.0876; in series [17] it was 0.0228; in [19], 0.026; in [21] it was 0.0685. Also, the AUC(0-t) at 2 h in series [6] was found to be 3.46 ng·h/mL; in series [8], 131 ng·h/mL; in [11], 122 ng·h/mL. Moreover, the Ratio in series [7] is recorded as 0.94; in the series with Nucleic Acid [12] it was 0.43; in [13], 0.74; with Nucleic Acid [14] it was 0.6; in series [16], 1.19; in the series on Nucleic Acid [20] it was 0.78. The Kp uu is 0.73 in series [9], 0.51 in series [10] and 0.44 in series [15].
For the compound `NC(=O)N1c2ccccc2C=Cc2ccccc21` [CARBAMAZEPINE], the AUC(0-t) at 7 h in [22] worked out at 2540 ng·h/mL; in series [24], 2270 ng·h/mL; in series [27], 456 ng·h/mL. For the same compound, the AUC(0-inf) is 2280 ng·h/mL in series [23], 2550 ng·h/mL in series [30] and 458 ng·h/mL in series [31]. For the same compound, the values for the Ratio (in series [25]; in the series on Nucleic Acid [29]) were 0.5 and 0.9, respectively. Also, the Kp in series [26] was determined as 1.12. For the same compound, the Kp uu in [28] came out at 0.45.
Turning to `Nc1nc(O)c2ncn(COC(CO)CO)c2n1` [GANCICLOVIR], the AUC(0-t) at 7 h is 170 ng·h/mL in [22], 1700 ng·h/mL in [24] and 78.4 ng·h/mL in [27]. Besides, the AUC(0-inf) in series [23] was found to be 1720 ng·h/mL; in series [30] it was 182 ng·h/mL; in series [31], 82.5 ng·h/mL. For the same compound, the figures for the Ratio (in [25]; in the series on Nucleic Acid [29]) were 1.85 and 0.05, respectively. In addition, the Kp in series [26] is 0.1. Also, in [28], the Kp uu amounted to 0.09.

The values above are taken from ChEMBL document CHEMBL3526130, “An evaluation of using rat-derived single-dose neuropharmacokinetic parameters to project accurately large animal unbound brain drug concentrations” (Drug Metab Dispos, 2012).
